Test results: patent publication US11197859B2 (AUTIFONY THERAPEUTICS LIMITED, priority 2010, dated 2021)
Entries after “also recorded” stand apart in the source; their conditions may differ.

Key:
[1] = test system: parvalbumin-positive interneurons in the somatosensory cortex; experiment: Firing of parvalbumin-positive interneurons in somatosensory cortex slices, in vitro; format: cell-based, mouse; conditions: 0.5 mM, vs control slices (0.1% DMSO)
MNTB neurons = experiment: High-voltage activated potassium currents in MNTB neurons, in vitro; format: cell-based, mouse; conditions: 1 mM
Experimental: Male CBA/Ca mice (aged 12-16 days) were used in these experiments (in accordance with the UK Animals Scientific Procedures Act, 1986). Brain slices containing the medial nucleus of the trapezoid body (MNTB) were prepared as described previously (Brew and Forsythe, 2005).
Chemicals and reagents were purchased from Sigma, (Poole, UK) unless otherwise noted. Reference Example RE1 was dissolved in DMSO and diluted in ACSF to the required concentration.
Recordings from identified MNTB neurons were conducted as previously described (Brew and Forsythe, 2005). Slices was placed in a superfusion chamber on an inverted microscope stage and continuously perfused with gassed (95% O2-5% CO2) ACSF at a rate of 1 ml min-1 at room temperature. Whole-cell recordings were made from visually identified MNTB neurons using an […] amplifier (Molecular Devices, Union City, Calif., USA). Patch solution comprised (in mM) potassium gluconate (97.5), KCl (32.5), Hepes (40), EGTA (5), MgCl2 (1), Na2phosphocreatin (5), pH 7.2 with KOH. Pipettes had resistances of 3-5 MΩ and series resistances were 6-10 MΩ (compensated by 70%, 10 μs lag). Access resistance was frequently monitored and the recording discarded if increases were more than 2 MΩ. […]

Kv3 channels = conditions: cited from earlier work
Male CD-1 mice = experiment: Psychostimulant (amphetamine)-induced hyperactivity in mice; conditions: AMPH 2 mg/kg i.p. + clozapine 3 mg/kg i.p. 30 min before; over 60 min; mean ± sem; p<0.01 vs amphetamine alone
[2] = target: T1, human Kv3.2 channels (hKv3.2) (Homo sapiens, UniProt Q96PR1); experiment: IonWorks Quattro electrophysiology, hKv3.2 currents, activation time constant (Tauact); format: cell-based; conditions: hKv3.2, -15 mV pulse; compound 0.2 μM (concentration giving ~0.3 nA current)
T1 construct: expressed in transfected cells
T1 sequence (Q96PR1 1-638): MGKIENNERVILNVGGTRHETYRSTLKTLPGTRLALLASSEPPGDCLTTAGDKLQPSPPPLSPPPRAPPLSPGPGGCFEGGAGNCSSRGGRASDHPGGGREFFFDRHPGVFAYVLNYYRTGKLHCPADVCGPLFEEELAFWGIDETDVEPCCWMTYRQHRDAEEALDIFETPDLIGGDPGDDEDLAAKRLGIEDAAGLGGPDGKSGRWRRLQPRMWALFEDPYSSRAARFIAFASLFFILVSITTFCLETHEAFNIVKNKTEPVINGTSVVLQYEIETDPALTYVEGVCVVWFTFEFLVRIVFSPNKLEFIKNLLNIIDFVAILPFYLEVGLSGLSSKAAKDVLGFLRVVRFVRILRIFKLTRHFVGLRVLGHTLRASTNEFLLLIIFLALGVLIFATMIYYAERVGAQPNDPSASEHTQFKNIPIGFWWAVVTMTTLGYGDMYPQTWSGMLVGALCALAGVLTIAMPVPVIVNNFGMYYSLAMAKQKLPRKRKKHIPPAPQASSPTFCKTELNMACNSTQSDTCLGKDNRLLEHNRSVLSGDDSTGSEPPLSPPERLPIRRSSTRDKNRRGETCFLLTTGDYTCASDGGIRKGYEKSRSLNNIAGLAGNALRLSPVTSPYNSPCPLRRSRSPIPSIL
Experimental: The ability of the compounds of the disclosure to modulate the voltage-gated potassium channel subtypes Kv3.2/3.1 may be determined using the following assay.
To assess compound effects on human Kv3.2 channels (hKv3.2), a stable cell line expressing hKv3.2 was created by transfecting Chinese Hamster Ovary (CHO)-K1 cells with a pCIH5-hKv3.2 vector. Cells were cultured in DMEM/F12 medium supplemented by 10% Foetal Bovine Serum, 1× non-essential amino acids (Invitrogen) and 500 ug/ml of Hygromycin-B (Invitrogen). Cells were grown and maintained at 37° C. in a humidified environment containing 5% CO2 in air.
The day of the experiment, cells were removed from the incubator and the culture medium removed. Cells were washed with 5 ml of Dulbecco's PBS (DPBS) calcium and magnesium free and detached by the addition of 3 ml Versene (Invitrogen, Italy) followed by a brief incubation at 37° C. for 5 minutes. The flask was tapped to dislodge cells and 10 ml of DPBS containing calcium and magnesium was added to prepare a cell suspension. The cell suspension was then placed into a 15 ml centrifuge tube and centrifuged for 2 min at 1200 rpm. After centrifugation, the supernatant was removed and the cell pellet re-suspended in 4 ml of DPBS containing calcium and magnesium using a 5 ml pipette to break up the pellet. Cell suspension volume was then corrected to give a cell concentration for the assay of approximately 3 million cells per ml.
Experiments were conducted at room temperature using IonWorks Quattro™ planar array electrophysiology technology (Molecular Devices Corp.) with PatchPlate™ PPC. Stimulation protocols and data acquisition were carried out using a microcomputer (Dell Pentium 4). Planar electrode hole resistances(Rp) were determined by applying a 10 mV voltage step across each well. These measurements were performed before cell addition. […] Following this, amphotericin-B solution was added to the intracellular face of the electrode to achieve intracellular access. Cells were held at −70 mV. Leak subtraction was conducted in all experiments by applying 50 ms hyperpolarizing (10 mV) prepulses to evoke leak currents followed by a 20 ms period at the holding potential before test pulses. From the holding potential of −70 mV, a first test pulse to −15 mV was applied for 100 ms and following a further 100 ms at −70 mV, a second pulse to 40 mV was applied for 50 ms. Cells were then maintained for a further 100 ms at −100 mV and then a voltage ramp from −100 mV to 40 mV was applied over 200 ms. In all experiments, the test pulses protocol was performed in the absence (pre-read) and presence (post-read) of the test compound. Pre- and post-reads were separated by the compound addition followed by a 3 minute incubation.
The intracellular solution contained the following (in mM): K-gluconate 100, KCl 54, MgCl2 3.2, HEPES 5, adjusted to pH 7.3 with KOH. Amphotericin-B solution was prepared as 50 mg/ml stock solution in DMSO and diluted to a final working concentration of 0.1 mg/ml in intracellular solution.
The final assay dilution was 200 and the final compound concentrations were in the range 50 μM to 50 nM.
The recordings were analysed and filtered using both seal resistance (>20 MΩ) and peak current amplitude (>500 pA at the voltage step of 40 mV) in the absence of compound to eliminate unsuitable cells from further analysis. Kv3 channel-mediated outward currents were measured determined from the mean amplitude of the current over the final 10 ms of the −15 mV voltage pulse minus the mean baseline current at −70 mV over a 10 ms period just prior to the −15 mV step. This Kv3 channel currents following addition of the test compound were then compared with the currents recorded prior to compound addition. […] The normalised data were analysed using ActivityBase or Excel software.

[3] = test system: "fast-firing" interneurons in the somatosensory cortex; experiment: Recordings from fast-firing interneurons, spike probability on trains of depolarising pulses; format: cell-based, mouse; conditions: 1 microM, n=6; trains at 100, 200, 300 Hz; effect at 300 Hz, p<0.05
Excerpt: Kv3.1 and Kv3.2 channels must activate and deactivate very rapidly in order to allow neurons to fire actions potentials at high frequency (Rudy and McBain, 2001, Trends in Neurosciences 24, 517-526). Slowing of activation is likely to delay the onset of action potential repolarisation; slowing of deactivation could lead to hyperpolarising currents that reduce the excitability of the neuron and delay the time before the neuron can fire a further action potential. Together these slowing effects on channel activation and deactivation are likely to lead to a reduction rather than a facilitation of the neurons ability to fire at high frequencies. Thus compounds that have this slowing effect on the Kv3.1 and/or Kv3.2 channels may slow neuronal firing.
The neurons are induced to fire at high frequencies by trains of high frequency depolarising current pulses at 100, 200, and 300 Hz. The ability of the neuron to fire an action potential on each pulse is determined. […] In the absence of drug (closed circles, n=9), the neurons maintained a spike probability of 1 up to 300 Hz.

Male CD rats = experiment: Electroshock seizure model in rats; format: in vivo, rat; conditions: 300 mg/kg p.o., 1 hour before test; positive control
Experimental: Male CD rats (85-130 g) were supplied by Charles River, Italy.
Testing involved determining the threshold for tonic hindlimb extensor seizures using a Hugo Sachs Electronik stimulator which delivers a constant current of 0.3 second duration, 50 Hz, sinewave form, fully adjustable between 1 and 300 mA. Stimuli were delivered via corneal electrodes (Stean T O, Atkins A R, Heidbreder C A, Quinn L P, Trail B K, Upton N. (2005) Br J Pharmacol. 144(5):628-35). Seizure threshold was determined using the ‘up and down’ method of Kimball et al. (1957)(Kimball A W, Burnett W T Jr, Doherty D G. (1957) Radiat Res. 7(1):1-12). The first animal tested in each group was stimulated with a current that might be expected to be close to the threshold for induction of a seizure. If a tonic seizure was not induced, then the next animal in the group received a stimulus 5 mA higher. If a tonic seizure was induced, then the next animal received a stimulus 5 mA lower. This is repeated for all animals within the control (vehicle) group. In the case of groups treated with a test compound steps of 5 to 10 mA were used. At the end of the study, blood samples were taken for analysis of the drug concentrations in this compartment (n=4/group).
All doses were calculated as base. Sodium valproate was suspended in Methocell 1% (w/v) and dosed via the oral (p.o.) route at 5 mL/kg 1 hour before test. Reference Example RE1 was dissolved in DMSO and then suspended in Methocell 1% (w/v) to a final DMSO concentration of 5% (v/v). Reference Example RE1 was then dosed p.o. at 5 mL/kg 2 hours before test.
Induction of seizure is measured as an all-or-nothing effect scored as either present (+) or absent (0) for each animal. […] Drug effects were calculated as the % change in CC50. Significant differences between drug-treated animals and appropriate vehicle treated groups were assessed according to the methods of Litchfield and Wilcoxon (1949).

With `CC[N+](CC)(CC)CC` [TEA, Tetraethylammonium, reference compound] the action potential half-width [1] was “significantly increased”, the “maximal frequency of action potential firing in response to step currents” value [1] was “fired at a lower maximal frequency” and the “amplitude of outward high voltage-activated potassium currents evoked by voltage steps to +40 mV” value (MNTB neurons) was “significantly reduced”. The “inhibition of Kv3 channels” value (Kv3 channels) was “inhibit the channels at low millimolar concentrations”.

In the case of `CN1CCN(C2=Nc3cc(Cl)ccc3Nc3ccccc32)CC1` [Clozapine, reference compound], the “Total Distance Travelled (cm)” value (Male CD-1 mice) is reported as 932 ± 362 cm.

In the case of `CC[C@H]1NC(=O)N(c2ccc(Oc3cccc4c3C3(CC3)CO4)nc2)C1=O` [Example 15, (5R)-5-ethyl-3-[6-(spiro[1-benzofuran-3,1′-cyclopropan]-4-yloxy)-3-pyridinyl]-2,4-imidazolidinedione], the “Tauact mean” value [2] is reported as 50.1 ms and the “ability of neurons to fire (spike probability) on trains of depolarising pulses” value [3] is reported as “reduces the ability of the neurons to fire; also recorded: unable to follow trains at the highest frequency”.

With `CCCC(CCC)C(=O)[O-].[Na+]` [sodium valproate, Sodium valproate, reference compound] the “increase in seizure threshold (% change in CC50)” value (Male CD rats) was 258%.
